In the NIST ThermoML archive (doi:10.1016/j.fluid.2016.10.026):

Tests used:
[1] = refractive index (Na D-line) (dimensionless); conditions: 101 kPa, Liquid, Standard Abbe refractometry
[2] = relative permittivity at zero frequency (dimensionless); conditions: 101 kPa, Liquid, capacitive

CC(=O)c1cccs1 [2-acetylthiophene]
Conditions	refractive index, [1]	relative permittivity at zero frequency, [2]
278.15 K	–	32.38
280.65 K	–	32.01
283.15 K	1.5705	31.64
285.65 K	1.5692	31.28
288.15 K	1.568	30.87
290.65 K	1.567	30.47
293.15 K	1.5658	29.94
295.65 K	1.5646	29.69
298.15 K	1.5633	29.19
300.65 K	1.5622	28.92
303.15 K	1.5609	28.47
305.65 K	1.5599	28.14
308.15 K	1.5586	27.76
310.65 K	1.5573	27.43
313.15 K	1.5562	27.05
315.65 K	1.555	26.75
318.15 K	1.5538	26.32
320.65 K	1.5526	25.95
323.15 K	1.5514	25.68
325.65 K	1.5502	25.33
328.15 K	1.549	25.02
330.65 K	1.548	24.7
333.15 K	1.5468	24.33
335.65 K	1.5455	23.98
338.15 K	1.5443	23.6
